Values quoted from earlier work in publication PMC12150326 (The Journal of Organic Chemistry, 2025).
Where “and” joins values, the source holds several entries; their conditions need not be identical. Equal values may be shown once. Read-outs that look alike come from different tables or passages of the source.

Legend:
Design in all cases: method as in NCI-60 database
EKVX = EKVX ref NCI-60 database, cited from earlier work
HCT-116 = HCT-116 ref NCI-60 database, cited from earlier work
HCT-15 = HCT-15 ref NCI-60 database, cited from earlier work
OVCAR-5 = OVCAR-5 ref NCI-60 database, cited from earlier work
OVCAR-8 = OVCAR-8 ref NCI-60 database, cited from earlier work
NCI/ADR-RES = NCI/ADR-RES ref NCI-60 database; listed as 757/9; cited from earlier work
A498 = A498 ref NCI-60 database, cited from earlier work
CAKI-1 = CAKI-1 ref NCI-60 database, cited from earlier work
MDA-MB-231/ATCC = MDA-MB-231/ATCC ref NCI-60 database, cited from earlier work
HS 578T = HS 578T ref NCI-60 database; cited from earlier work
SNB-78 = SNB-78 ref NCI-60 database, cited from earlier work

COc1cc2c(c(OC)c1OC)-c1ccc(OC)c(=O)cc1[C@@H](NC(C)=O)CC2 [Colchicine, (−)-Colchicine]
GI50 (EKVX): > 100000 nM | Log10GI50 (EKVX): > -4 Molar | Log10LC50 (EKVX): > -4.00 Molar | Log10TGI (EKVX): > -4.00 Molar | Log10GI50 (EKVX; listed as 757/21): > -4.00 Molar | GI50 (HCT-116): 30 nM | Log10GI50 (HCT-116): -7.49 Molar | Log10LC50 (HCT-116): > -4.00 Molar | Log10GI50 (HCT-116; listed as 757/1): -7.41 Molar | Log10TGI (HCT-116; listed as 757/1): > -4.00 Molar and -4.23 Molar | Log10GI50 (HCT-116; listed as 757/9): -7.79 Molar | GI50 (HCT-15): 210 nM | Log10GI50 (HCT-15): -6.68 Molar | Log10LC50 (HCT-15; listed as 757/9): -5.60 Molar | Log10LC50 (HCT-15; listed as 757/21): > -4.00 Molar | GI50 (OVCAR-5): 76 nM | Log10GI50 (OVCAR-5): -7.12 Molar | Log10LC50 (OVCAR-5): > -4.00 Molar | Log10GI50 (OVCAR-5; listed as 757/1): -4.48 Molar | Log10TGI (OVCAR-8; listed as 757/1): > -4.00 Molar | Log10LC50 (OVCAR-8; listed as 757/9): -7.11 Molar | Log10LC50 (OVCAR-8; listed as 757/21): > -4.00 Molar | Log10GI50 (NCI/ADR-RES): -6.59 Molar and -6.31 Molar | Log10LC50 (A498): > -4.00 Molar | Log10GI50 (A498; listed as 757/1): -6.96 Molar | Log10TGI (A498; listed as 757/1): > -4.00 Molar | Log10TGI (A498; listed as 757/9): -5.50 Molar | Log10GI50 (A498; listed as 757/21): -7.68 Molar and -7.40 Molar | Log10LC50 (CAKI-1): > -4.00 Molar | Log10GI50 (CAKI-1; listed as 757/1): < -8.00 Molar | Log10TGI (CAKI-1; listed as 757/1): > -4.00 Molar | Log10GI50 (CAKI-1; listed as 757/9): -6.57 Molar | Log10TGI (CAKI-1; listed as 757/9): -6.69 Molar | GI50 (MDA-MB-231/ATCC): 7080 nM | Log10GI50 (MDA-MB-231/ATCC): -5.15 Molar | Log10LC50 (MDA-MB-231/ATCC): > -4.00 Molar | Log10TGI (MDA-MB-231/ATCC): > -4.00 Molar | Log10GI50 (MDA-MB-231/ATCC; listed as 757/9): < -8.00 Molar and -7.78 Molar | Log10GI50 (MDA-MB-231/ATCC; listed as 757/21): -5.15 Molar | Log10LC50 (HS 578T): > -4.00 Molar | Log10LC50 (SNB-78): > -4.00 Molar | Log10TGI (SNB-78): > -4.00 Molar | Log10GI50 (SNB-78; listed as 757/21): -7.88 Molar and < -8.00 Molar
